Measurements taken from PMC8605905 (Oxidative Medicine and Cellular Longevity, 2021).

Experiments:
Format in all cases: cell-based, Human
[1] = system: CRE-GFP 293 cells; assay: CRE-GFP 293 reporter cell assay (flow cytometry); settings: for CRE-motif-driven GFP expression: 10 μM, 5 h, in the presence of Ca2+ ionophore (2 μM)
Excerpt: Using the pCRE-MetLuc2-Reporter plasmid (Clontech, Mountain View, CA, USA) as a template, the DNA fragment containing the cAMP response element (CRE) motifs and TATA-like promoter (PTAL) flanked by MluI and AgeI restriction sites was amplified by PCR using sense ([…], MluI site underlined) and antisense ([…], AgeI site underlined) primers. The amplified CRE-PTAL promoter fragment was cloned into pGEM-T Easy (Promega, Madison, WI, USA) and sequenced. The CRE-PTAL-containing MluI/AgeI fragment and GFP-containing AgeI/NotI fragment (from pEGFP-N1; Clontech) were subcloned into MluI- and NotI-digested pcDNA5/FRT/TO (Novagen, Madison, WI, USA). The resulting construct with CRE-PTAL-driving GFP was used to establish 293 GFP reporter cells by targeting insertion into Flp-In-293 cells according to the supplier's instructions (Invitrogen). The cells were grown in a medium containing 5 μg/ml blasticidin and 100 μg/ml hygromycin.
On day 1, CRE-GFP 293 cells were seeded into 48-well plates (5 × 10^4/well). After 24 h, cells were treated with Ca^2+ ionophore (2 μM) (Sigma-Aldrich) for 0–24 h. Cell viability was measured using 3,(4,5-dimethylthiazol-2-yl)-2,5-diphenyltetrazolium bromide (MTT) assay (Sigma-Aldrich). The absorbance of the insoluble purple formazan dye was quantified at 570 nm on a μQuant microplate spectrophotometer (Bio-Tek). In addition, the cells were treated with the Ca^2+ ionophore A23187 (0.5–10 μM) (Sigma-Aldrich) for 5 h, followed by analysis of GFP fluorescence by flow cytometry (Becton–Dickinson, Franklin Lakes, NJ, USA) with excitation/emission wavelengths at 488/507 nm. To monitor CREB activation, cells were treated with forskolin or coumarin-chalcone derivatives (5–10 μM) in the presence or absence of Ca^2+ ionophore (2 μM) for 5 h, and GFP fluorescence was analysed.
(§1) To monitor the cAMP-mediated signal transduction pathway, CRE-GFP 293 cells in 6-well plates (1 × 10^6/well) were pretreated with kinase inhibitor H-89 (LC Laboratories, Woburn, MA, USA), KN-62 (Cayman Chemical, Ann Arbor, MI, USA), U0126 (LC Laboratories), or wortmannin (LC Laboratories) (10 μM) for 4 h before forskolin or LM-021 (10 μM) addition for 5 h. GFP fluorescence/protein and total/phosphorylated PKA, CaMKII, ERK, PI3K, and CREB levels were examined. In addition, Aβ-GFP or ∆K280 tauRD-DsRed SH-SY5Y cells were treated with retinoic acid (10 μM) on day 1, followed by the addition of LM-021 (5 or 10 μM) and doxycycline (5 or 2 μg/ml) on day 2, as described. Kinase inhibitors (10 μM) were added on day 6. On day 8, the cells were collected for protein expression analysis of BDNF, BCL2 (BCL2 apoptosis regulator), and BAX (BCL2 associated X, apoptosis regulator), and total/phosphorylated PKA, CaMKII, ERK, PI3K, and CREB. Also, cells were stained with DAPI and assessed for neurite outgrowth as described above.

[2] = system: CRE-GFP 293 cells; assay: Western blot in CRE-GFP 293 cells; settings: inhibitor 10 μM, LM-021 10 μM, without Ca2+ ionophore, immunoblot
Experimental: as §1
Total proteins from CRE-GFP 293 and Aβ-GFP, ∆K280 tauRD-DsRed SH-SY5Y cells were extracted using lysis buffer (50 mM Tris-HCl (pH 8.0), 150 mM NaCl, 1 mM EDTA (pH 8.0), 1 mM EGTA (pH 8.0), 0.1% SDS, 0.5% sodium deoxycholate, 1% Triton X-100) containing phosphatase and protease inhibitor cocktails (Sigma-Aldrich). Protein concentrations were measured using a protein assay kit (Bio-Rad, Hercules, CA, USA), and 20 μg of proteins was separated with 10% SDS-PAGE and blotted onto polyvinylidene difluoride (PVDF) membranes (Sigma-Aldrich). […]

[3] = system: Aβ-GFP SH-SY5Y cells; assay: Western blot in Aβ-GFP SH-SY5Y cells; settings: inhibitor 10 μM on day 6, LM-021 5 μM
Experimental: as §1
(§2) Total proteins from CRE-GFP 293 and Aβ-GFP, ∆K280 tauRD-DsRed SH-SY5Y cells were extracted using lysis buffer (50 mM Tris-HCl (pH 8.0), 150 mM NaCl, 1 mM EDTA (pH 8.0), 1 mM EGTA (pH 8.0), 0.1% SDS, 0.5% sodium deoxycholate, 1% Triton X-100) containing phosphatase and protease inhibitor cocktails (Sigma-Aldrich). Protein concentrations were measured using a protein assay kit (Bio-Rad, Hercules, CA, USA), and 20 μg of proteins was separated with 10% SDS-PAGE and blotted onto polyvinylidene difluoride (PVDF) membranes (Sigma-Aldrich). After blocking, the membrane blot was incubated with primary antibody against GFP (1 : 500; Santa Cruz Biotechnology, Santa Cruz, CA, USA), PKA (1 : 1000; R&D Systems, Minneapolis, MN, USA), p-PKA (T197) (1 : 1000; Cell Signaling, Danvers, MA, USA), ERK (1 : 500; Cell Signaling), p-ERK (T202/Y204) (1 : 500; Cell Signaling), CaMKII (1 : 1000; Santa Cruz Biotechnology), p-CaMKII (T286) (1 : 1000; Cell Signaling), CREB (1 : 1000; Santa Cruz Biotechnology), p-CREB (S133) (1 : 1000; Millipore, Billerica, MA, USA), BDNF (1 : 500; Santa Cruz Biotechnology), BCL2 (1 : 500; BioVision), BAX (1 : 500; BioVision), GAPDH (glyceraldehyde-3-phosphate dehydrogenase, as a loading control) (1 : 1000; MDBio, Taipei, Taiwan), or β-tubulin (1 : 1000, Sigma-Aldrich, as a loading control). The immune complexes were visualized using horseradish peroxidase-conjugated goat anti-mouse or goat anti-rabbit IgG antibody (1 : 5000, GeneTex, Irvine, CA, USA) and a chemiluminescent substrate (Millipore).

[4] = system: ∆K280 tauRD-DsRed SH-SY5Y cells; assay: High content analysis of neurite outgrowth in ΔK280 tauRD-DsRed cells; settings: inhibitor 10 μM on day 6, LM-021 10 μM
Experimental: (§3) On day 1, Aβ-GFP or ∆K280 tauRD-DsRed SH-SY5Y cells were plated into 24-well plates (6 × 10^4/well) followed by addition of retinoic acid. On day 2, cells were treated with coumarin-chalcone derivatives (5 or 10 μM) and with doxycycline (5 or 2 μg/ml) to induce the expression of Aβ-GFP or ∆K280 tauRD-DsRed. On day 8, 4% paraformaldehyde, 0.1% Triton X-100, and 3% BSA were used to fix, permeabilize, and block cells, respectively. Subsequently, the cells were stained with TUBB3 (neuronal class III β-tubulin) primary antibody (1 : 1000; Covance, Princeton, NJ, USA) at 4°C overnight. Goat anti-rabbit Alexa Fluor 555 secondary antibody (1 : 1000; Thermo Fisher Scientific) was then added, followed by a 3 h incubation at room temperature. Following staining nuclei with 4′,-6-diamidino-2-phenylindole (DAPI) (0.1 μg/ml; Sigma-Aldrich), the neurons were imaged by using the HCA system and analysed by using the Neurite Outgrowth Application Module (MetaXpress; Molecular Devices).
as §1

[5] = system: Aβ-GFP SH-SY5Y cells; assay: High content analysis of neurite outgrowth in Aβ-GFP cells; settings: inhibitor 10 μM on day 6, LM-021 5 μM
Experimental: as §3, §1

[6] = system: ∆K280 tauRD-DsRed SH-SY5Y cells; assay: Western blot in ΔK280 tauRD-DsRed SH-SY5Y cells; settings: inhibitor 10 μM on day 6, LM-021 10 μM
Experimental: as §1, §2

| SMILES | CRE-motif-driven GFP expression [1] | CRE-motif-driven GFP expression ([1]; listed as forskolin) | Effect of kinase inhibitor on increased p-CREB and GFP protein levels [2] | Effect of kinase inhibitor on LM-021-upregulated kinase phosphorylation [3] | Effect of kinase inhibitor on LM-021 increase in p-CREB, pro-BDNF, m-BDNF, and BCL2 [3] | Effect of kinase inhibitor on LM-021-ameliorated neurite length and branch length [4] | Effect of kinase inhibitor on LM-021-improved neurite length, processes, and branches [5] | Effect of kinase inhibitor on LM-021-upregulated kinase phosphorylation [6] | Effect of kinase inhibitor on LM-021 upregulation of p-CREB, pro-BDNF, m-BDNF, and BCL2 [6] | Effect of kinase inhibitor on LM-021-activated GFP levels ([1]; inhibitor 10 μM 4 h before LM-021 10 μM, presence or absence of Ca2+ ionophore) | Effect of kinase inhibitor on forskolin-activated GFP level ([1]; inhibitor 10 μM 4 h before forskolin 10 μM, presence of Ca2+ ionophore) |
| --- | --- | --- | --- | --- | --- | --- | --- | --- | --- | --- | --- |
| C=C[C@@]1(C)CC(=O)[C@]2(O)[C@@]3(C)[C@@H](O)CCC(C)(C)[C@@H]3[C@H](O)[C@H](OC(C)=O)[C@@]2(C)O1 [Forskolin, forskolin] | significantly increased | significantly activated |  |  |  |  |  |  |  |  |  |
| O=S(=O)(NCCNC/C=C/c1ccc(Br)cc1)c1cccc2cnccc12 [H-89] |  |  | significantly reduced | mitigated the increase of p-PKA | attenuated the increase | reversed these effects | counteracted these improvements | reduced the upregulation of p-PKA | attenuated the upregulation | attenuated the GFP levels | attenuated the GFP level |
